Data from patent US20250235458A1, “Benzimidazole derivatives for use in the treatment or prevention of a histiocytosis or a craniopharyngioma” (UNIVERSITE CLAUDE BERNARD LYON 1, priority 2021, published 2025).

Assays:
Assay type in all cases: cell-based, murine
[1] = test system: MutuDC1940 cells; assay: Proliferation assay (confluence by Incucyte)
Protocol: (§1) 1.5×10^4 cells (MutuDC1940) were plated onto 96 wells plates. Next day, cells were treated at 8 μM of compound 6 or vemurafenib or with the vehicle (DMSO) in presence of 0.3 μg/ml of propidium iodide (Sigma) to detect cell death. Proliferation and cell death were quantified by Incucyte® (Essen Biosciences) according to manufacturer's instructions over 48 h.
The results obtained for the proliferation assay are presented on FIG. 2. FIG. 2 presents the confluence, i.e. the percentage of the surface of the culture dish that is covered by the cells, observed during time for a culture of MutuDC1940 cells, a murine model of histiocytosis, treated at 8 μM with compound 6 according to the invention or with vemurafenib (a MAPK/BRAF inhibitor), or with the vehicle (DMSO).
(§2) The same experiments regarding cell proliferation (assessed by confluence in %) and cell death (assessed by number of dead cells on 13 mm^2) as in Example 1 were repeated with additional ERK/MyD88 inhibitors of formula (I): compounds 2, 7 and 17.
(§3) The same experiments regarding cell proliferation (assessed by confluence in %) and cell death (assessed by number of dead cells on 13 mm^2) as in Example 1 were repeated with a lower concentration, which corresponds to the IC50 of vemurafenib (BRAF inhibitor).

[2] = test system: MutuDC1940 cells; assay: Cell death assay (propidium iodide, number of dead cells by Incucyte)
Protocol: as §1
The results obtained for the cell death assay are presented on FIG. 3. FIG. 3 presents the number of dead cells observed during time for a culture of MutuDC1940 cells, a murine model of histiocytosis, treated at 8 μM with compound 6 according to the invention or with vemurafenib (a MAPK/BRAF inhibitor), or with the vehicle (DMSO).
as §2, §3

[3] = test system: MutuDC1940 cells; assay: CXCL2 quantification assay (ELISA); conditions: 8 μM, 16 h or 24 h treatment, vs DMSO
Protocol: 0.5×10^6 cells (MutuDC1940) were plated onto 6-well plates. Next day, cells were treated with 8 μM of compound 6 or DMSO for 16 or 24 hours. Each condition was performed in triplicate. Supernatants were collected and murine CXCL2 was measured by ELISA according to the manufacturer's instructions (Invitrogen).

[4] = 8 μM, over 48 h, vs vehicle (DMSO)

Row | SMILES | cell proliferation (confluence in %) [1, 4] | cell death (number of dead cells on 13 mm^2) [2, 4] | production of CXCL2 (cytokine production) [3] | cell proliferation (confluence in %) ([1]; ulixertinib at 1 μM, FIG. 11) | cell death (number of dead cells on 13 mm^2) ([2]; ulixertinib at 1 μM, FIG. 12)
1 | COc1ccc(NC(=O)c2ccc3[nH]c(-c4ccc(N(C)C)cc4)nc3c2)cn1 [compound 6] | inhibits the proliferation of the cells | induces the death of the cells | induces cytokine production |  | 
2 | CC(C)Nc1cc(-c2c[nH]c(C(=O)N[C@H](CO)c3cccc(Cl)c3)c2)c(Cl)cn1 [ulixertinib, reference compound] |  |  |  | only inhibit proliferation | no effect on cell death
